According to patent US7608416B2, “Targeting mPGES-1 as a treatment for inflammation which avoids cardiovascular risk” (The Trustees of the University of Pennsylvania, priority 2004, dated 2009):
Blank lines part the entries; values can stand above or below the molecule they belong to.

Experiments:
IP (PGI2 receptor) [1] = experiment: Direct measurement of blood pressure (MAP) after i.v. cicaprost; format: in vivo, mouse; settings: IP-/- mice, 1 μg/kg intravenously
Procedure: (§1) (iii) Direct measurement of blood pressure: Mice were anesthetized (ketamine 100 mg/kg, acepromazine 5 mg/kg) and placed on a temperature-controlled panel. The right internal jugular vein and left carotid artery were cannulated with PE-10 tubing. The arterial catheter was connected to a Capto SP844 pressure transducer (Capto, Horten, Norway), and blood pressure (BP) was monitored continuously with a Powerlab/8SP system (AD Instruments Inc, Colorado Springs, Colo.), as previously described (Hui et al., 2004, Circulation 110: 3360-6; Rocca et al., 2000, Nat. Med. 6: 219-21). Blood pressure and heart rate were continuously monitored for 20-40 min until stable values were obtained. After the equilibration period and the baseline BP was recorded, mice were injected via the right internal jugular vein with cicaprost (1 μg/kg in 4 ml/kg saline) as a bolus. The same volume of saline was injected before cicaprost administration to exclude volume-mediated BP changes. The BP was continuously recorded until it returned to pretreatment baseline.
(§2) The cardiovascular consequences of deleting just one copy of the IP on cardiovascular function in vivo was studied. Mean arterial pressure (MAP) was measured directly via carotid artery catheterization in anesthetized WT, IP^+/−, and IP^−/− littermates on C57BL/6 genetic background, following administration of the IP agonist cicaprost (Cica) 1 μg/kg intravenously (FIG. 3). The maximal decline evoked by Cica in MAP was 36±3.5% from pretreatment baseline in WT, 24%±3.3% in IP+/− and 0% in IP−/− littermates(F=42, n=5; P<0.0001). […] A similar effect of IP deletion was seen on the inhibitory effect of 10 nM cicaprost on platelet aggregation induced by collagen 2 μg/ml ex vivo (FIG. 4). […] The impact of IP deletion on the time to thrombotic carotid arterial occlusion, induced by green laser activation of Rose Bengal, which causes free radical catalyzed vascular injury, was also gene-dose dependent (FIG. 5, left panel). The time to occlusion fell from 66.3±5.1 min in WTs to […] in IP^+/− to 29.7±7.6 min in IP^−/− mice (F=6.5, n=9-10, P<0.0055). Inhibition of PGHS-2 by DFU also accelerated thrombogenesis, from 59.4±10.4 min to 33.4±4.3 min (n=7-8, P<0.05; FIG. 5, right panel). Thus, the mean impact of DFU on time to occlusion (56.2% of WT value) was intermediate between that of IP^+/− ([…]) and IP^−/− (45.5%) mice.

IP (PGI2 receptor) [2] = target: T1, IP (PGI2 receptor) (Mus musculus, UniProt P43252); experiment: as above; format: in vivo; settings: 1 μg/kg intravenously; for Maximal decline in MAP from pretreatment baseline: C57BL/6, anesthetized
T1 construct: anesthetized WT, IP^+/−, and IP^−/− littermates on C57BL/6 genetic background, following administration of the IP agonist cicaprost; from tissue; host or cells: whole animal: anesthetized WT, IP+/- and IP-/- mice, C57BL/6 background, in vivo
Procedure: as §1, §2

[3] = test system: platelet aggregation induced by collagen; experiment: Whole blood platelet aggregation assay, collagen-induced, ex vivo; format: cell-based, mouse; settings: 10 nM, collagen 2 μg/ml
Procedure: 250 μl blood was mixed with 750 μl of sodium chloride at 37° C. Platelet aggregation was performed using a 500 Whole Blood Lumi-Aggregometion System (Chrono-Log Corp, Havertown, Pa.) as previously described ([…] et al., 1983, Thromb. Haemost. 50: 852-6; Booth et al., 1998, Can. J. Physiol. Pharmacol. 76: 811-3; Emery et al., 1995, Arterioscler. Thromb. Vasc. Biol. 15: 748-53). Samples were pretreated with or without 10 nM cicaprost for 1 minute, and aggregation was initiated by addition of 2 μg/ml collagen.

mice [4] = experiment: Tail cuff blood pressure measurement; format: in vivo, mouse
Procedure: (i) Tail Cuff measurement: Resting systolic blood pressure was measured in conscious, 3-4 month old mice using a computerized, noninvasive tail-cuff system, BP-2000 Blood Pressure Analysis System™ (Visitech Systems, Inc. Apex, N.C.). […] Mice were adapted to the system for 14 days by taking blood pressure measurements during 25 minute long sessions. The sessions were held once daily between 15:00 and 18:00. After the adaptation period, blood pressure was recorded daily for 3 consecutive days in the same way. Data were collected and analyzed using updated BP 2000 Analysis Software.

[5] = test system: PGE2 biosynthesis (urinary PGEM); experiment: Urinary PGEM by LC/MS/MS; format: in vivo, mouse; settings: DFU, WT male mice, vs pre-administration value (FIG. 11)
Procedure: Urinary PGEM was measured by LC/MS/MS as follows: First, 10 ng of hexadeuterated PGEM (9,15-dioxo-11α-hydroxy-2,3,4,5-tetranor-prostan-1,20-dioic-17,17,18,18,19,19-d6 acid; Cayman Chemical Co., Ann Arbor, Mich.) was added as an internal standard to 0.1 ml of mouse urine. Next, 50 μL of 1 g/ml methoxyamine HCl was added, and the sample was mixed and allowed to stand at room temperature for 15 minutes. The sample was then diluted to 1.0 ml with water and loaded on a StrataX solid phase extraction (SPE) cartridge (Phenomenex, Torrance, Calif.). The SPE was eluted with 1.0 mL of 5% acetonitrile in ethyl acetate, dried, dissolved in 200 μL 10% acetonitrile in water, and injected for LC/MS/MS analysis. Transitions monitored were m/z 385→336 for the endogenous PGE-M and 391→342 for the internal standard.
PGE2 biosynthesis was assessed in mice having inhibited or deleted PGHS-1 or PGHS-2 function using a mass spectrometric assay (FIG. 9) for the major PGE metabolite, 11α-hydroxy-9,15-dioxo-2,3,4,5-tetranor-prostane-1,20-dioic acid (PGEM). […] Thus, unlike PGI2 biosynthesis, both PGHS-1 and PGHS-2 each contribute substantially to PGE2 biosynthesis.

[6] = test system: PGI2 biosynthesis (urinary 2,3-dinor 6-keto PGF1α, PGIM); experiment: Urinary PGIM (2,3-dinor 6-keto PGF1α) excretion, 24 h urine, GC/MS; format: in vivo, mouse; settings: DFU, WT male mice, before vs after administration (FIG. 2)
Procedure: Eicosanoid analyses: Urinary TxM and PGIM were measured in twenty four hour urines collected in metabolic cages. After extraction and purification by thin layer chromatography, they were analyzed by a stable isotope dilution reverse phase (C18) HPLC/tandem mass spectrometry assay and gas chromatography/mass spectrometry, respectively, as previously described (Egan et al., 2005, Circulation 111: 334-242).
The relative contribution of the PGHS enzymes, PGHS-1 and PGHS-2, to the biosynthesis of PGI2 and TxA2 was assessed by measuring urinary 2,3-dinor 6-keto PGF1α (PGIM) and 2,3-dinor TxB2 (TxM) respectively. […] PGIM and TxM was also assessed in PGHS-1 knockdown (KD) mice. […] Traditional NSAIDS and NSAIDs selective for PGHS-2 inhibit COX activity, not POX activity. Tyr385 in PGHS (ovine PGH-1 numbering) is critical for cyclooxygenase (COX) catalysis, but is uninvolved in peroxidase (POX) activity. PGIM and TxM was also assessed in PGHS-2^Y385F mice, in which the cyclooxygenase, but not the peroxidase (POX) function, of PGHS-2 is inactivated, thereby mimicking the effect of a selective PGHS-2 inhibitor (Yu et al., 2005a, J. Clin. Invest. (Submitted manuscript)).

mice [7] = settings: mouse, in vivo
Procedure: (i) Photochemical vascular injury: This model is an adaptation of one previously described method (Yu et al., 2005, J. Clin. Invest. 115:986-95). Briefly, mice were anesthetized with sodium pentobarbital (80 mg/kg, intraperitoneally). The left common carotid artery was isolated and a Doppler flow probe (Model 0.5 VB, Transonic Systems Co., NY) was applied. The probe was connected to a flowmeter (Transonic Model T105) and interpreted with a computerized data acquisition program (Powerlab, AD Instruments, CO). Just before i.v. injection of Rose Bengal (50 mg/kg body weight, Fisher Scientific, NJ), a 1.5-mW green light laser (540 nm) (Melles Griot Inc, Carlsbad, Calif.) was applied to the desired site of injury at a distance of 5 cm from the carotid artery. Blood flow was monitored up to 120 minutes after injection or until stable occlusion occurred. Stable occlusion was defined as a blood flow of 0 ml/min for 3 minutes. To confirm occlusive thrombosis, carotid arterial segments subjected to injury were excised and embedded in paraffin. Sections were then stained with hematoxylin and eosin.

mice [8] = experiment: Collagen induced platelet consumption; format: in vivo, mouse; settings: WTs, PGHS-2 Y385F and PGHS-2 KO mice, 2 min after i.v. collagen plus epinephrine
Procedure: (ii) Collagen induced platelet consumption: Briefly, mice (8 weeks old) were weighed and anesthetized with sodium pentobarbital (80 mg/kg). 100 μl of a mixture of collagen (250 μg/ml) and epinephrine (15 μg/ml) in 0.9% NaCl was injected rapidly into the tail vein. […] After thorough mixing, platelets were counted by automated multispecies hematology analyzers (CDC Technologies), as previously described (Gresele et al, 1990, Thromb. Haemost. 64:80-6).

[9] = target: T2, thromboxane receptor (TP) (Mus musculus, UniProt P30987); experiment: U46619 induced sudden death; format: in vivo; settings: PGHS-2 KO and PGHS-2 Y385F mice compared to WT, 0.2 mg/kg intravenous, within 15 min
T2 construct: they received a rapid intravenous injection of U46619 (0.2 mg/kg in PBS, Cayman Chemical) via the tail vein; from tissue; host or cells: whole animal: WT, PGHS-2 KO and PGHS-2 Y385F mice, in vivo
T2 sequence (P30987 1-341): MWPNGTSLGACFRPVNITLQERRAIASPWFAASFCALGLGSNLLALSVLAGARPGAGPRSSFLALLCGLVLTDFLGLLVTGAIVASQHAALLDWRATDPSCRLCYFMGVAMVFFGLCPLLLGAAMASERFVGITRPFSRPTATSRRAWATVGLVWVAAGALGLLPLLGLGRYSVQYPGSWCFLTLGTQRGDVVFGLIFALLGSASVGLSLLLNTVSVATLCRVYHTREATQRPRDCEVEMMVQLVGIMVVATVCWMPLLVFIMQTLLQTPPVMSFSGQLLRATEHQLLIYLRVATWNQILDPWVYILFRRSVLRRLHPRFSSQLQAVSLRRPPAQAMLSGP
Procedure: (iii) U46619 induced sudden death: This model is based on a model established previously (Momi et al., 2000, Eur. J. Pharmacol. 397: 177-85). Briefly, mice (3-4 months old) were anesthetized with sodium pentobarbital. Then they received a rapid intravenous injection of U46619 (0.2 mg/kg in PBS, Cayman Chemical) via the tail vein. Heart rate was monitored for 15 minutes prior to sacrifice.

[10] = 3 month old mice, mixed C57BL/6×129/sv, regular chow

T1 sequence (P43252 1-412): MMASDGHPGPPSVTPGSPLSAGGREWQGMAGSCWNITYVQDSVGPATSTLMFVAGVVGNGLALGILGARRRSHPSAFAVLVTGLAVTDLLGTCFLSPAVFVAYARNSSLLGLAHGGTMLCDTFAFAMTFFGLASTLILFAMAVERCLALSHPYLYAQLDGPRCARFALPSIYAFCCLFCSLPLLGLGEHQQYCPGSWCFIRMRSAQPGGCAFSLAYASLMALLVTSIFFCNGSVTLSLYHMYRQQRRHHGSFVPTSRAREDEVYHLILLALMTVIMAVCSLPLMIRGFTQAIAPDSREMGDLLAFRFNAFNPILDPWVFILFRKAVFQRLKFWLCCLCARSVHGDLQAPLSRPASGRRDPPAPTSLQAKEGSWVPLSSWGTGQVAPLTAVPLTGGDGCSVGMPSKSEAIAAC

Molecule: CCC#CC[C@H](C)[C@H](O)C#C[C@@H]1[C@H]2C/C(=C/COCC(=O)O)C[C@H]2C[C@H]1O [cicaprost]
Duration of the depressor response (IP (PGI2 receptor) [1]): no change in MAP
Maximal decline in MAP from pretreatment baseline (IP (PGI2 receptor) [1]; C57BL/6, anesthetized): 0%
Duration of the depressor response (IP (PGI2 receptor) [2]; IP+/- mice): 5.3 ± 1.1 min
Maximal decline in MAP from pretreatment baseline (IP (PGI2 receptor) [2]; IP+/- mice): 24%±3.3
Duration of the depressor response (IP (PGI2 receptor) [2]; WT mice): 10.8 ± 2.5 min
Maximal decline in MAP from pretreatment baseline (IP (PGI2 receptor) [2]; WT mice): 36±3.5%
Inhibition of platelet aggregation ([3]; IP-/- mice): not achieved
inhibition at 0.01 µM ([3]; Mus musculus, Platelet, IP+/- mice, read-out: Inhibition of platelet aggregation, % of the maximal inhibition observed in WTs): 86.7%

Molecule: Cc1ccc(-c2cc(C(F)(F)F)nn2-c2ccc(S(N)(=O)=O)cc2)cc1 [celecoxib]
Diastolic blood pressure compared to WTs (mice [4]; [10]): elevated significantly
Systolic blood pressure compared to WTs (mice [4]; [10]): elevated significantly
Hypertensive effect in PGHS-1 KDs compared to WTs (mice [4]; PGHS-1 KD mice): attenuated

Mean impact on time to occlusion, % of WT value (mice [7]): 56.2%
Molecule: CC1(C)OC(=O)C(c2cccc(F)c2)=C1c1ccc(S(C)(=O)=O)cc1 [DFU, 5,5-dimethyl-3-(3-fluorophenyl)-4-(4-methylsulphonyl)phenyl-2(5H)-furanone]
Urinary PGEM [5]: depressed PGEM significantly
Urinary 2,3-dinor 6-keto PGF1α (PGIM) [6]: depressed significantly

Molecule: collagen
Circulating platelet count (mice [8]): dose-dependent decrese in platelets

Molecule: CCCCC[C@H](O)/C=C/[C@@H]1[C@@H](C/C=C\CCCC(=O)O)[C@H]2CO[C@@H]1C2 [U46619]
Frequency of sudden death [9]: augmented
